Assays:
AKT [1] = test: AKT signaling immunoblot / phospho-array, HUVECs; format: cell-based, human; details: PP1 10 μM, Dynasore 100 μM, vs DMSO
Protocol: Cellular reagents were purchased from various commercial vendors. Primary human umbilical vein endothelial cells (HUVECs) were obtained from Cell Applications Inc. and cultured according to the manufacture's recommendations. Primary human coronary artery smooth muscle cells were obtained from Invitrogen and were cultured according to the manufacture's recommendations. 293T cells were obtained from ATCC and were cultured according to the manufacture's recommendations. Mouse primary smooth muscle cells were obtained and cultured as described previously. Predesigned Silencer Select siRNA constructs targeting Pearl 1 and negative control siRNA were obtained from ThermoFisher. Transfections were performed using RNAiMAX or Lipofectamine 3000 transfection reagents according to the manufacturer's protocols. Cells were used for signaling assays 48 hours after transfection; efficient Pearl 1 knockdown or Pearl 1 overexpression was confirmed by immunoblot assays.
Prior to performing signaling assays, cells were trypsinized, centrifuged, suspended in basal media, and counted using an automated hemocytometer. Cells were further diluted in basal media to an assay-dependent concentration. Cells were then incubated with gentle agitation for 60 minutes to prevent cell attachment and reduce basal signaling. PP1, Dynasore, MK-2206, and Rapamycin were diluted in DMSO and used in assay concentrations of 10 μM, 100 μM, 10 μM, and respectively, for the final 20-30 minutes of incubation in basal media. An equal volume of DMSO was used as the negative control condition. […] 1 μg Pearl 1 polyclonal antibody was added as a specific positive control. 20% growth media or 2% fetal bovine serum, labeled “Serum” in figures, was added as a non-specific positive control. The cells were centrifuged at 300G for 3 minutes with the exception of platelets, which were centrifuged at 500G for 5 minutes. The cells were then incubated at 37° C. for 8-45 minutes, depending on the cell type and pathway of interest. The cells were lysed in radioimmunoprecipitation buffer (RIPA) containing a cocktail of protease and phosphatase inhibitors and universal nuclease. Immunoblots were performed by standard techniques, as briefly follows. Protein content was determined using a bicinchoninic acid assay with BSA standards (#23225, Pierce BCA Protein Assay Kit). Cell lysates were then reduced with dithiothreitol (DTT) in lithium dodecyl sulfate (LDS) sample buffer (#NP0007, Invitrogen). Equal protein amounts were added to polyacrylamide gels (#4561086, BioRad) and electrophoresed prior to transferring to a nitrocellulose or polyvinylidene fluoride membrane (#1620260, BioRad). Membranes were blocked in 5% BSA/Tris-buffered saline (TBS) with 0.1% Tween 20 for 30 minutes. […]

mTOR = mTOR signaling immunoblot, platelets; format: cell-based, human; details: platelets pretreated with inhibitor before SVEP1
Protocol: Prior to performing signaling assays, cells were trypsinized, centrifuged, suspended in basal media, and counted using an automated hemocytometer. Cells were further diluted in basal media to an assay-dependent concentration. Cells were then incubated with gentle agitation for 60 minutes to prevent cell attachment and reduce basal signaling. […] An equal volume of DMSO was used as the negative control condition. […] 1 μg Pearl 1 polyclonal antibody was added as a specific positive control. 20% growth media or 2% fetal bovine serum, labeled “Serum” in figures, was added as a non-specific positive control. The cells were centrifuged at 300G for 3 minutes with the exception of platelets, which were centrifuged at 500G for 5 minutes. The cells were then incubated at 37° C. for 8-45 minutes, depending on the cell type and pathway of interest. The cells were lysed in radioimmunoprecipitation buffer (RIPA) containing a cocktail of protease and phosphatase inhibitors and universal nuclease. Immunoblots were performed by standard techniques, as briefly follows. […] Cell lysates were then reduced with dithiothreitol (DTT) in lithium dodecyl sulfate (LDS) sample buffer (#NP0007, Invitrogen). […] Membranes were blocked in 5% BSA/Tris-buffered saline (TBS) with 0.1% Tween 20 for 30 minutes. The indicated primary antibodies were incubated with the pre-blocked membranes overnight at 4° C. Membranes were washed with TBS with 0.1% Tween 20, probed with fluorescent secondary antibodies, and imaged. β-actin or β-tubulin served as a loading control.
Whole blood was collected by venipuncture into either heparin vacutainers (BD, Franklin Lakes) for whole blood experiments or acid-citrate-dextrose (ACD) vacutainers (BD, Franklin Lakes) for platelet isolation studies. For platelet isolation, samples were supplemented with apyrase (Sigma, St Louis) and prostaglandin E1 (Cayman Chemical, Ann Arbor), and platelet-rich plasma (PRP) was prepared by centrifugation of the ACD whole blood for 20 minutes at 200G. […]

AKT [2] = test: AKT signaling immunoblot, platelets; format: cell-based, human; details: platelets pretreated with inhibitor before SVEP1
Protocol: Prior to performing signaling assays, cells were trypsinized, centrifuged, suspended in basal media, and counted using an automated hemocytometer. Cells were further diluted in basal media to an assay-dependent concentration. Cells were then incubated with gentle agitation for 60 minutes to prevent cell attachment and reduce basal signaling. PP1, Dynasore, MK-2206, and Rapamycin were diluted in DMSO and used in assay concentrations of 10 μM, 100 μM, 10 μM, and respectively, for the final 20-30 minutes of incubation in basal media. An equal volume of DMSO was used as the negative control condition. […] 1 μg Pearl 1 polyclonal antibody was added as a specific positive control. 20% growth media or 2% fetal bovine serum, labeled “Serum” in figures, was added as a non-specific positive control. The cells were centrifuged at 300G for 3 minutes with the exception of platelets, which were centrifuged at 500G for 5 minutes. The cells were then incubated at 37° C. for 8-45 minutes, depending on the cell type and pathway of interest. The cells were lysed in radioimmunoprecipitation buffer (RIPA) containing a cocktail of protease and phosphatase inhibitors and universal nuclease. Immunoblots were performed by standard techniques, as briefly follows. Protein content was determined using a bicinchoninic acid assay with BSA standards (#23225, Pierce BCA Protein Assay Kit). Cell lysates were then reduced with dithiothreitol (DTT) in lithium dodecyl sulfate (LDS) sample buffer (#NP0007, Invitrogen). Equal protein amounts were added to polyacrylamide gels (#4561086, BioRad) and electrophoresed prior to transferring to a nitrocellulose or polyvinylidene fluoride membrane (#1620260, BioRad). Membranes were blocked in 5% BSA/Tris-buffered saline (TBS) with 0.1% Tween 20 for 30 minutes. The indicated primary antibodies were incubated with the pre-blocked membranes overnight at 4° C. Membranes were washed with TBS with 0.1% Tween 20, probed with fluorescent secondary antibodies, and imaged. β-actin or β-tubulin served as a loading control.
Whole blood was collected by venipuncture into either heparin vacutainers (BD, Franklin Lakes) for whole blood experiments or acid-citrate-dextrose (ACD) vacutainers (BD, Franklin Lakes) for platelet isolation studies. For platelet isolation, samples were supplemented with apyrase (Sigma, St Louis) and prostaglandin E1 (Cayman Chemical, Ann Arbor), and platelet-rich plasma (PRP) was prepared by centrifugation of the ACD whole blood for 20 minutes at 200G. Platelets were isolated from the PRP by centrifugation for 10 minutes at 1000G and resuspended in modified Tyrode's buffer twice at desired platelet counts and kept at 37° C. until used. Isolated platelets were used within 2 hours of preparation.

VSMCs = test: VSMC proliferation assay (BrdU incorporation); format: cell-based, mouse
Protocol: Plates were UV sterilized before adding cells. […] For analysis of peritoneal macrophages, 4% thioglycolate-elicited peritoneal macrophages from Itg α9^MAC+/+ and Itg α9^MACfl/fl mice were suspended in BrdU dissolved in RPMI 1640 media containing 10% FBS. 2.5×10^4 cells were added to each well since peritoneal macrophages are smaller and have lower proliferation rates than VSMCs in culture.
Plates were ultraviolet (UV) sterilized before adding cells. […] Efficient Itgα9 knockdown was confirmed by qPCR.

[3] = Arterial blood pressure response to vasoactive agents; format: in vivo, mouse; details: venous administration, anesthetized Svep1+/+ and Svep1−/− mice
Protocol: Central arterial blood pressure and heart rate were measured under inhaled 1.5% isoflurane anesthesia and while mice were maintained at 37° C. using a heating pad and rectal thermometer, as done previously. Briefly, a midline incision was performed in the neck region; the thymus, muscle, and connective tissue were dissected away to isolate the right common carotid artery. After tying it distally and clamping it proximally, an incision was made in the right common carotid artery through which a Millar pressure transducer (model SPR-1000, Houston, Tex.) was introduced, the clamp was removed, and the transducer advanced to the ascending aorta. Once instrumentation was complete, arterial blood pressure (systolic, diastolic, and mean) and heart rate were recorded via the PowerLab® data acquisition system (ADlnstruments, Colorado Springs, Colo.). The average of a 3-minute period of stable recording was reported. Data were analyzed using LabChart® 8 for 673 MAC software (ADInstruments).
To assess the blood pressure response to vasoactive agents, after baseline blood pressure measurement, dissection was performed to visualize the left internal jugular (IJ) vein as done previously. Once identified, a small incision was made and PE-10 tubing was introduced and kept in place with a 6-0 silk suture. […]

| Compound | effect of inhibitor pretreatment on AKT activation by SVEP1 and Pearl 1 pAb (AKT [1]) | dependence of SVEP1-induced p70S6K Thr 389 phosphorylation on the inhibited protein or process (mTOR) | effect of inhibitor on activation of AKT by SVEP1 (AKT [2]) | change in blood pressure [3] | also measured |
| --- | --- | --- | --- | --- | --- |
| Cc1ccc(-c2nn(C(C)(C)C)c3ncnc(N)c23)cc1 [PP1] | abrogated | dependent | completely abrogated | – | – |
| NC1(c2ccc(-c3nc4ccn5c(=O)[nH]nc5c4cc3-c3ccccc3)cc2)CCC1 [MK-2206] | – | partially dependent | completely abrogated | – | – |
| C[C@H](NC(=O)Cc1cc(F)cc(F)c1)C(=O)N[C@H](C(=O)OC(C)(C)C)c1ccccc1 [DAPT, reference compound] | – | – | – | – | effect on cell proliferation in response to 10% fetal bovine serum (VSMCs; 25 μM DAPT): not significantly inhibited; effect on SVEP1-induced proliferation (VSMCs; 25 μM DAPT vs DMSO): completely abrogated |
| O=C(N/N=C/c1ccc(O)c(O)c1)c1cc2ccccc2cc1O [Dynasore] | abrogated | partially dependent | partially abrogated | – | – |
| CNC[C@H](O)c1cccc(O)c1 [phenylephrine] | – | – | – | dose-dependent manner | – |
| angiotensin II | – | – | – | dose-dependent manner | – |

From US20230159620A1, “COMPOSITIONS AND METHODS OF TREATMENT FOR VASCULAR DISEASES AND THROMBOSIS” (Washington University, priority 2021, published 2023)
